Test results taken from the PolyMetriX glass transition set.
± gives the standard deviation of the reports.

SMILES | glass transition temperature [°C]
*c1ccc(Oc2ccc(C(C)(C)c3ccc(Oc4ccc(-c5nnc(*)c6c(-c7ccccc7)c(-c7ccc8ccccc8c7)c(-c7ccc8ccccc8c7)c(-c7ccccc7)c56)cc4)cc3)cc2)cc1 (repeat unit) | 290.00
*c1ccc(NC(=O)c2cc(NC(=O)c3ccc(NC(=O)C(C)N4C(=O)c5ccccc5C4=O)cc3)cc(C(=O)Nc3ccc(S(*)(=O)=O)cc3)c2)cc1 (repeat unit) | 208.00
*CC(C)(CCC)C(=O)O* (repeat unit) | 1.90
*C(=O)c1ccc2c(c1)C(=O)N(c1cccc(OCCOc3cccc(N4C(=O)c5ccc(*)cc5C4=O)c3)c1)C2=O (repeat unit) | 191.00
*Oc1ccc(S(=O)(=O)c2ccc(Oc3ccc(NC(=O)c4cccc(C(=O)Nc5ccc(*)cc5)c4)cc3)cc2)cc1 (repeat unit) | 260.00
*c1ccc(S(=O)(=O)c2ccc(-n3c(=O)c4cc5c(=O)n(*)c(=O)c5cc4c3=O)cc2)cc1 (repeat unit) | 350.00
*Oc1ccc2c(c1)C1(CC2(C)C)CC(C)(C)c2ccc(OC(=O)c3cccc(C(*)=O)c3)cc21 (repeat unit) | 245.00
*C(=O)c1ccc2c(c1)C(=O)N(c1cc(OCCCC)cc(N3C(=O)c4ccc(*)cc4C3=O)c1)C2=O (repeat unit) | 244.00
*OC1CCC(OC(=O)OCCCCCOC(*)=O)CC1 (repeat unit) | -5.00
*c1ccc(OCCN(CC)c2ccc(-c3ccc(C(=C(C#N)C#N)c4ccc(N(CC)CC)cc4)s3)cc2)c(-c2cc(-c3ccccc3)c3cc(Oc4ccc5nc(*)cc(-c6ccccc6)c5c4)ccc3n2)c1 (repeat unit) | 215.00
*/C(Cl)=C(/*)CCCCCCCC (repeat unit) | 90.00
*Oc1ccc(CC(NC(=O)Cc2ccc(OC(=O)CCCC(*)=O)cc2)C(=O)OCC)cc1 (repeat unit) | 65.00
*C(CC(C)C)C(=O)Nc1ccc(Oc2ccc(NC(=O)NCC3(C)CC(NC(=O)Nc4ccc(Oc5ccc(NC(=O)C(CC(C)C)n6c(=O)c7cc8c(=O)n(*)c(=O)c8cc7c6=O)cc5)cc4)CC(C)(C)C3)cc2)cc1 (repeat unit) | 147.50
*c1ccc(Oc2ccccc2Oc2ccc(N3C(=O)c4ccc(Oc5ccccc5Oc5ccc6c(c5)C(=O)N(*)C6=O)cc4C3=O)cc2)cc1 (repeat unit) | 193.00
*CCCOCCCCOCCCN1C(=O)c2ccc(C(=O)Oc3ccc4cc(OC(=O)c5ccc6c(c5)C(=O)N(*)C6=O)ccc4c3)cc2C1=O (repeat unit) | 68.00
*Nc1ccc(Cc2ccc(NC(=O)NCCCCCCCCCNC(*)=O)cc2)cc1 (repeat unit) | -50.00
*CC(OC1CCCCC1)C1C(=O)OC(=O)C1* (repeat unit) | 201.00
*CCCCCCOC(=O)OCCCCCCN1C(=O)c2ccc(-c3ccc(-c4ccc5c(c4)C(=O)N(*)C5=O)cc3)cc2C1=O (repeat unit) | 73.00
*C1OCCCC1C1C(=O)OC(=O)C1* (repeat unit) | 210.00
*CC1CCC(COP(=O)(/N=N/c2ccc(Oc3ccc(/N=N/P(=O)(O*)OC)cc3)cc2)OC)CC1 (repeat unit) | 50.00
*CC(*)C(=O)OCCCCCCCCCCCCOC(=O)c1ccc(OC(=O)c2ccc(C#N)cc2)cc1 (repeat unit) | 15.00
*CC(O)CO* (repeat unit) | 17.00
*CCCCCCCCCCOC(=O)c1ccccc1C(=O)O* (repeat unit) | -14.00

SMILES | glass transition temperature [°C]
*Oc1ccc(NC(=O)c2ccc(C(=O)Nc3ccc(OC4COC5C(*)COC45)cc3)cc2)cc1 (repeat unit) | 57.00
*CC(*)C(=O)N(C)C (repeat unit) | 114.00
*Nc1ccc(NC(=O)c2cc(-c3ccc(C(=O)O)c(C(*)=O)c3)ccc2C(=O)O)cc1 (repeat unit) | 248.40
*Nc1cc(NC(=O)c2ccc(C(*)=O)cc2)cc(C(=O)OC(c2ccccc2)c2ccccc2)c1 (repeat unit) | 217.00
*C(=O)Nc1cccc(Oc2ccc(S(=O)(=O)c3ccc(Oc4cccc(NC(=O)c5ccc(N6C(=O)c7ccc(*)cc7C6=O)cc5)c4)cc3)cc2)c1 (repeat unit) | 235.00
*CC1CCCC(CNC(=O)c2cccc(C(=O)N*)c2)C1 (repeat unit) | 180.00
*CC#CC#CCOc1ccc(C(=O)OCCN(CCOC(=O)c2ccc(O*)cc2)c2ccc(/N=N/c3ccc([N+](=O)[O-])cc3)cc2)cc1 (repeat unit) | 100.00
*CC(*)C(=O)OCCCCSC (repeat unit) | -70.00
*CCCCCC(=O)Oc1ccc2ccc(OC(=O)CCCCCn3c(=O)c4cc5c(=O)n(*)c(=O)c5cc4c3=O)cc2c1 (repeat unit) | 98.00
*CCCCCCCCOc1cccc(NC(=O)c2ccc(C(=O)Nc3cccc(O*)c3)cc2)c1 (repeat unit) | 122.00
*c1ccc(S(=O)(=O)c2ccc(-n3nc(-c4ccc(Oc5ccc(-c6nn(*)c(=O)c7ccccc67)cc5)cc4)c4ccccc4c3=O)cc2)cc1 (repeat unit) | 295.00
*CC(*)(C)C(=O)OCC#C (repeat unit) | 58.00
*Nc1cccc(C(=O)c2ccc(NC(=O)c3cccc(C(=O)c4ccc(C(*)=O)cc4)c3)cc2)c1 (repeat unit) | 215.00
*CC* (repeat unit) [Poly(ethylene)] | -54.00 ± 89
*C1C(=O)OC(=O)C1C1C2CC(C(=O)OC3CCCCC3)C(C2)C1* (repeat unit) | 195.00
*CCC[Si](*)(C)C (repeat unit) | -55.00
*Oc1ccc(C(c2ccccc2)c2ccc(OC(*)=O)cc2)cc1 (repeat unit) | 170.00
*Oc1ccc(C(C)(c2ccccc2)c2ccc(OC(=O)c3cccc(C(*)=O)c3)cc2)cc1 (repeat unit) | 202.00
*O[Si](*)(C)CCCOc1ccc(C(=O)Oc2ccc(-c3ccc(OC(=O)c4cc(OCCCCC)c(OCCCCC)c(OCCCCC)c4)cc3)cc2)cc1 (repeat unit) | 49.00
*CCCCCOC(=O)OCCCCCN1C(=O)c2ccc(C(=O)c3ccc4c(c3)C(=O)N(*)C4=O)cc2C1=O (repeat unit) | 77.00
*C(=O)c1ccc2c(c1)C(=O)N(c1ccc(Cc3ccc(Cc4ccc(N5C(=O)c6ccc(*)cc6C5=O)cc4)cc3)cc1)C2=O (repeat unit) | 347.00
*c1ccc(Oc2ccc(-c3cc(-c4ccc(Oc5ccc(-c6cc(*)nc7ccccc67)cc5)cc4)c4ccccc4n3)cc2)cc1 (repeat unit) | 300.00

Results, then the compound that gave them:

glass transition temperature [°C] | SMILES
106.20 | *CC(*)(C)C(=O)OCCCCCCCCOc1ccc(/N=N/c2ccc(C3OCC4(CO3)CC3C=CC4C3)cc2)cc1 (repeat unit)
226.00 | *c1ccc(Oc2ccc(C(c3ccc(Oc4ccc(-c5nnc(*)n5-c5ccc(S(C)(=O)=O)cc5)cc4)cc3)(C(F)(F)F)C(F)(F)F)cc2)cc1 (repeat unit)
79.00 | *c1ccc(C(=O)OCCCCCCCCCCOC(=O)c2ccc(-c3nnc(*)s3)cc2)cc1 (repeat unit)
115.00 | *C1C(=O)N(CCCCOc2ccc(-c3ccc(C#N)cc3)cc2)C(=O)C1* (repeat unit)
23.50 | *CC(F)(F)C(F)(F)C(F)(F)COC(=O)c1cccc(C(=O)O*)c1 (repeat unit)
157.00 | *Oc1ccc(Oc2ccc(C(=O)c3ccc(*)cc3)cc2)cc1-c1ccccc1 (repeat unit)
151.00 | *CCCCCOc1ccc(-c2ccc(O*)c3ccccc23)c2ccccc12 (repeat unit)
267.00 | *c1cccc(C(c2cccc(N3C(=O)c4ccc(-c5ccc6c(c5)C(=O)N(*)C6=O)cc4C3=O)c2)(C(F)(F)F)C(F)(F)F)c1 (repeat unit)
263.00 | *c1ccc(Oc2ccc(NC(=O)CN3C(=O)c4ccc(C(c5ccc6c(c5)C(=O)N(CC(=O)Nc5ccc(Oc7ccc(-c8nnc(*)o8)cc7)cc5)C6=O)(C(F)(F)F)C(F)(F)F)cc4C3=O)cc2)cc1 (repeat unit)
-37.00 | *CC(*)C(=O)OCC(F)(F)C(F)(F)C(F)(F)C(F)(F)F (repeat unit)
262.00 | *c1ccc2c(c1)C(=O)N(c1ccc(-c3ccc(Oc4ccc5c(c4)C(C)(c4ccc(Oc6ccc(-c7ccc(N8C(=O)c9ccc(C(*)(C(F)(F)F)C(F)(F)F)cc9C8=O)cc7)cc6C(F)(F)F)cc4)CC5(C)C)c(C(F)(F)F)c3)cc1)C2=O (repeat unit)
236.00 | *C(=O)c1ccc2c(c1)C(=O)N(c1ccc(Oc3ccccc3Oc3ccc(N4C(=O)c5ccc(*)cc5C4=O)cc3C(F)(F)F)c(C(F)(F)F)c1)C2=O (repeat unit)
61.00 | *CC(*)(C)C(=O)OCCCCCCOc1ccc(/N=N/c2ccc(C#N)cc2)cc1 (repeat unit)
346.00 | *c1ccc2c(c1)C(=O)N(c1cc(C)c(-c3c(C)cc(N4C(=O)c5ccc(C(*)(C(F)(F)F)C(F)(F)F)cc5C4=O)cc3C)c(C)c1)C2=O (repeat unit)
36.00 | */C=C/c1cc(OCCCCCCCCCCCC)c(*)cc1OC (repeat unit)
-62.50 | *O[Si](C)(C)O[Si](C)(C)c1ccc([Si](*)(C)C)cc1 (repeat unit)
46.00 | *OC(=O)c1ccc(CCCCc2ccc(C(*)=O)cc2)cc1 (repeat unit)
27.00 | *CC(*)OC(=O)C(F)(F)C(F)(F)C(F)(F)F (repeat unit)
138.00 | *OC(COC(=O)c1ccc2cc(C(*)=O)ccc2c1)COc1ccc(/N=N/c2ccc(C#N)cc2)cc1 (repeat unit)
122.00 | */C=C/c1cc(OCC(CC)CCCC)c(*)cc1-c1ccc(F)c(C(F)(F)F)c1 (repeat unit)
0.00 | *OCC(F)(F)C(F)(F)C(F)(F)COc1nc(F)nc(*)c1F (repeat unit)
